Where two headings read alike, the source gives them in different places.
Key:
SUV39H2 = SUV39H2 (Homo sapiens (Human), UniProt Q9H5I1); conditions: read-out: IC50 (μM) Suv 39H2 assay; enzyme assay
HCT-116 = test: Cell-based assay, anti-proliferative activity (Cell Counting Kit-8, 72 hours); conditions: Homo sapiens, read-out: IC50 (μM) HCT-116
Outline: (§1)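 Growth inhibition is read by Cell Counting Kit-8 after three days of compound treatment. Test concentrations span 0, 1.5625, 3.125, 6.25, 12.5, 25, 50 and 100 micro-M, and IC50 serves as the anti-proliferative measure.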

PC14 = test: as above; conditions: Homo sapiens, read-out: IC50 (μM) PC14
Outline: as §1

CCD-18Co = test: as above; conditions: Homo sapiens, read-out: IC50 (μM) CCD-18Co
Outline: as §1

HFL1 = test: as above; conditions: Homo sapiens, read-out: IC50 (μM) HFL1
Outline: as §1

A549 = test: as above; conditions: Homo sapiens, read-out: IC50 (μM) A549
Outline: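 Cells were seeded in 96-well plates and exposed to candidate inhibitors. Cellular growth was then determined with the colorimetric kit, and IC50 values were calculated from the growth data.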

[1] = HCT-116 cells, Cell Counting Kit-8, 72 hours
[2] = PC-14, PC14 cells, Cell Counting Kit-8, 72 hours
[3] = CCD-18Co cells, Cell Counting Kit-8, 72 hours
[4] = HFL1 cells, Cell Counting Kit-8, 72 hours
[5] = A549 cells, Cell Counting Kit-8, 72 hours

SUV39H2, sequence (Q9H5I1 whole entry): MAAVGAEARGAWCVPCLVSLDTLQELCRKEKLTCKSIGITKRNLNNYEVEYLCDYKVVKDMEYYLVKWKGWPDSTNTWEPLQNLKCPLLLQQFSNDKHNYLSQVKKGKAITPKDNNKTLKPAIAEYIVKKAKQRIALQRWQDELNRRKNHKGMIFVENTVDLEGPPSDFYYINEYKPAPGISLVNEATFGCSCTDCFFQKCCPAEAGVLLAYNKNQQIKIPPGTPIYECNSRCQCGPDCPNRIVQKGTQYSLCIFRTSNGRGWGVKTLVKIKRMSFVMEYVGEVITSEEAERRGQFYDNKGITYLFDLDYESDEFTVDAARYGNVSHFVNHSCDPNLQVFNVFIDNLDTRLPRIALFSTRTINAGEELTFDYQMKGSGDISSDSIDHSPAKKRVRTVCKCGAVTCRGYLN

## COc1cc(OC)c(-c2cn3ccc(N4CCN(S(C)(=O)=O)CC4)nc3n2)cc1Cl [Example 177, 2-(5-chloro-2,4-dimethoxyphenyl)-7-(4-(methylsulfonyl)piperazin-1-yl)-imidazo[1,2-a]pyrimidine]
SUV39H2
  IC50: 0.0408 µM
HCT-116; [1]
  IC50: 6 µM
PC14; [2]
  IC50: 2.5 µM
CCD-18Co; [3]
  IC50: 11 µM
HFL1; [4]
  IC50: 8 µM
A549; [5]
  IC50: 3.8 µM

## COc1cc(OC)c(-c2cn3ccc(N4CCN(S(=O)(=O)C(C)C)CC4)cc3n2)cc1Cl [Example 178, 2-(5-chloro-2,4-dimethoxyphenyl)-7-[4-(isopropylsulfonyl)piperazin-1-yl]imidazo[1,2-a]pyridine]
SUV39H2
  IC50: 0.0143 µM
HCT-116; [1]
  IC50: 1.5 µM
PC14; [2]
  IC50: 0.74 µM
CCD-18Co; [3]
  IC50: 2.1 µM
HFL1; [4]
  IC50: 1.7 µM
A549; [5]
  IC50: 1 µM

## COc1cc(OC)c(-c2cn3ccc(N4CCN(S(=O)(=O)Cc5ccccc5)CC4)cc3n2)cc1Cl [Example 179, 7-[4-(benzylsulfonyl)piperazin-1-yl]-2-(5-chloro-2,4-dimethoxyphenyl)-imidazo[1,2-a]pyridine]
SUV39H2
  IC50: 0.0322 µM
HCT-116; [1]
  IC50: 1.6 µM
PC14; [2]
  IC50: 1.6 µM
CCD-18Co; [3]
  IC50: 1.8 µM
HFL1; [4]
  IC50: 1.8 µM
A549; [5]
  IC50: 2.1 µM

## COc1cc(OC)c(-c2cn3ccc(N4CCN(S(=O)(=O)N(C)C)CC4)nc3n2)cc1Cl [Example 180, 4-[2-(5-chloro-2,4-dimethoxyphenyl)imidazo[1,2-a]pyrimidin-7-yl]-N,N-dimethylpiperazine-1-sulfonamide]
SUV39H2
  IC50: 0.0241 µM
HCT-116; [1]
  IC50: 1.5 µM
PC14; [2]
  IC50: 1.6 µM
CCD-18Co; [3]
  IC50: 2.6 µM
HFL1; [4]
  IC50: 1.7 µM
A549; [5]
  IC50: 1.1 µM

## COc1cc(OC)c(-c2cn3ccc(N4CCC(NS(=O)(=O)N(C)C)CC4)cc3n2)cc1Cl [Example 181, N-{1-[2-(5-Chloro-2,4-dimethoxyphenyl)imidazo[1,2-a]pyridin-7-yl]piperidin-4-yl}N,N-dimethylsulfonamide]
SUV39H2
  IC50: 0.0139 µM
HCT-116; [1]
  IC50: 1.6 µM
PC14; [2]
  IC50: 1.5 µM
CCD-18Co; [3]
  IC50: 0.38 µM
HFL1; [4]
  IC50: 0.35 µM
A549; [5]
  IC50: 0.76 µM

## COc1cc(OC)c(-c2cn3ccc(N4CCC(N5CCCS5(=O)=O)CC4)cc3n2)cc1Cl [Example 182, 2-{1-[2-(5-chloro-2,4-dimethoxyphenyl)imidazo[1,2-a]pyridin-7-yl]piperidin-4-yl}isothiazolidine 1,1-dioxide]
SUV39H2
  IC50: 0.00697 µM
HCT-116; [1]
  IC50: 1.9 µM
PC14; [2]
  IC50: 1.5 µM
CCD-18Co; [3]
  IC50: 2.6 µM
HFL1; [4]
  IC50: 1.8 µM
A549; [5]
  IC50: 1.7 µM

## COC(=O)Nc1ccn2cc(-c3cc(Cl)c(OC)cc3OC)nc2c1 [Example 183, methyl [2-(5-chloro-2,4-dimethoxyphenyl)imidazo[1,2-a]pyridin-7-yl]-carbamate]
SUV39H2
  IC50: 0.0241 µM
HCT-116; [1]
  IC50: 2.1 µM
PC14; [2]
  IC50: 1.9 µM
CCD-18Co; [3]
  IC50: 1.8 µM
HFL1; [4]
  IC50: 2 µM
A549; [5]
  IC50: 1.8 µM

## COc1cc(OC)c(-c2cn3ccc(N4CCCN(C(=O)OC(C)(C)C)CC4)cc3n2)cc1Cl [Example 184, tert-butyl 4-[2-(5-chloro-2,4-dimethoxyphenyl)imidazo[1,2-a]pyridin-7-yl]-1,4-diazepane-1-carboxylate]
SUV39H2
  IC50: 0.0285 µM
HCT-116; [1]
  IC50: 5.7 µM
PC14; [2]
  IC50: 2.5 µM
CCD-18Co; [3]
  IC50: 4.9 µM
HFL1; [4]
  IC50: 2.2 µM
A549; [5]
  IC50: 3.8 µM

## COc1cc(OC)c(-c2cn3ccc(N4CCC(NS(=O)(=O)CC(C)C)CC4)cc3n2)cc1Cl [Example 185, N-{1-[2-(5-Chloro-2,4-dimethoxyphenyl)imidazo[1,2-a]pyridin-7-yl]piperidin-4-yl}-2-methylpropane-1-sulfonamide]
SUV39H2
  IC50: 0.0127 µM
HCT-116; [1]
  IC50: 1.1 µM
PC14; [2]
  IC50: 1.4 µM
CCD-18Co; [3]
  IC50: 1.9 µM
HFL1; [4]
  IC50: 2 µM
A549; [5]
  IC50: 1.6 µM

## COc1cc(OCCCN(C)C)c(-c2cn3ccc(N4CCNCC4)nc3n2)cc1Cl [Example 186, 3-(4-chloro-5-methoxy-2-(7-(piperazin-1-yl)imidazo[1,2-a]pyrimidin-2-yl)phenoxy)-N,N-dimethylpropan-1-amine]
SUV39H2
  IC50: 0.0619 µM
HCT-116; [1]
  IC50: 17 µM
PC14; [2]
  IC50: 12 µM
CCD-18Co; [3]
  IC50: 35 µM
HFL1; [4]
  IC50: 7.3 µM
A549; [5]
  IC50: 22 µM

## COc1cc(OC)c(-c2cn3ccc(N4CCCN(S(=O)(=O)C5CC5)CC4)cc3n2)cc1Cl [Example 187, 2-(5-chloro-2,4-dimethoxyphenyl)-7-[4-(cyclopropylsulfonyl)-1,4-diazepan-1-yl]imidazo[1,2-a]pyridine]
SUV39H2
  IC50: 0.00574 µM
HCT-116; [1]
  IC50: 1.9 µM
PC14; [2]
  IC50: 1.4 µM
CCD-18Co; [3]
  IC50: 5 µM
HFL1; [4]
  IC50: 2.1 µM
A549; [5]
  IC50: 2.1 µM

## COc1cc(OC)c(-c2cn3ccc(N4CCCN(S(=O)(=O)C(F)(F)F)CC4)cc3n2)cc1Cl [Example 188, 2-(5-chloro-2,4-dimethoxyphenyl)-7-{4-[(trifluoromethyl)sulfonyl]-1,4-diazepan-1-yl}imidazo[1,2-a]pyridine]
SUV39H2
  IC50: 0.0369 µM
HCT-116; [1]
  IC50: 1.6 µM
PC14; [2]
  IC50: 1.6 µM
CCD-18Co; [3]
  IC50: 1.4 µM
HFL1; [4]
  IC50: 1.5 µM
A549; [5]
  IC50: 1.6 µM

## COc1cc(OC)c(-c2cn3ccc(N4CCCNCC4)cc3n2)cc1Cl [Example 189, 2-(5-chloro-2,4-dimethoxyphenyl)-7-(1,4-diazepan-1-yl)imidazo[1,2-a]pyridine]
SUV39H2
  IC50: 0.00433 µM
HCT-116; [1]
  IC50: 3 µM
PC14; [2]
  IC50: 2.9 µM
CCD-18Co; [3]
  IC50: 6.3 µM
HFL1; [4]
  IC50: 2 µM
A549; [5]
  IC50: 3.5 µM

## CCS(=O)(=O)N1CCN(c2ccn3cc(-c4cc(Cl)c(OC)cc4OC)nc3n2)CC1 [Example 190, 2-(5-chloro-2,4-dimethoxyphenyl)-7-[4-(ethylsulfonyl)piperazin-1-yl]imidazo[1,2-a]pyrimidine]
SUV39H2
  IC50: 0.0306 µM
HCT-116; [1]
  IC50: 2.3 µM
PC14; [2]
  IC50: 1 µM
CCD-18Co; [3]
  IC50: 4.5 µM
HFL1; [4]
  IC50: 2.7 µM
A549; [5]
  IC50: 1.8 µM

## CCCS(=O)(=O)N1CCN(c2ccn3cc(-c4cc(Cl)c(OC)cc4OC)nc3n2)CC1 [Example 191, 2-(5-chloro-2,4-dimethoxyphenyl)-7-[4-(propylsulfonyl)piperazin-1-yl]-imidazo[1,2-a]pyrimidine]
SUV39H2
  IC50: 0.0293 µM
HCT-116; [1]
  IC50: 1.9 µM
PC14; [2]
  IC50: 1.5 µM
CCD-18Co; [3]
  IC50: 3.2 µM
HFL1; [4]
  IC50: 2 µM
A549; [5]
  IC50: 1.5 µM

## COc1cc(OC)c(-c2cn3ccc(N4CCC(NS(C)(=O)=O)CC4)nc3n2)cc1Cl [Example 192, N-(1-(2-(5-chloro-2,4-dimethoxyphenyl)imidazo[1,2-a]pyrimidin-7-yl)-piperidin-4-yl)methanesulfonamide]
SUV39H2
  IC50: 0.0148 µM
HCT-116; [1]
  IC50: 10 µM
PC14; [2]
  IC50: 10 µM
CCD-18Co; [3]
  IC50: 5.3 µM
HFL1; [4]
  IC50: 5.1 µM
A549; [5]
  IC50: 10 µM

## CCOP(=O)(CCN1CC=C(c2ccn3cc(-c4cc(Cl)c(OC)cc4OC)nc3c2)CC1)OCC [Example 194, diethyl (2-(4-(2-(5-chloro-2,4-dimethoxyphenyl)imidazo[1,2-a]pyridin-7-yl)-5,6-dihydropyridin-1(2H)-yl)ethyl)phosphonate]
SUV39H2
  IC50: 0.0696 µM
HCT-116; [1]
  IC50: 8.6 µM
PC14; [2]
  IC50: 5.7 µM
CCD-18Co; [3]
  IC50: 10 µM
HFL1; [4]
  IC50: 10 µM
A549; [5]
  IC50: 9 µM

## COc1cc(OC)c(-c2cn3ccc(C4=CCN(P(=O)(OC)OC)CC4)cc3n2)cc1Cl [Example 195, dimethyl{4-[2-(5-chloro-2,4-dimethoxyphenyl)imidazo[1,2-a]pyridin-7-yl]-5,6-dihydropyridin-1(2H)-yl}phosphonate]
SUV39H2
  IC50: 0.0375 µM
HCT-116; HCT-116, 72 h
  IC50: 0.93 µM
PC14; PC-14, 72 h
  IC50: 0.51 µM
CCD-18Co; CCD-18Co, 72 h
  IC50: 5.5 µM
HFL1; HFL1, 72 h
  IC50: 2.8 µM
A549; A549, 72 h
  IC50: 0.7 µM

## COc1cc(OCCCN(C)C)c(-c2cn3ccc(N4CCN(S(=O)(=O)N(C)C)CC4)cc3n2)cc1Cl [Example 196, 4-(2-{5-Chloro-2-[3-(dimethylamino)propoxy]-4-methoxyphenyl}imidazo[1,2-a]pyridin-7-yl)-N,N-dimethylpiperazine-1-sulfonamide]
SUV39H2
  IC50: 0.0147 µM
HCT-116; [1]
  IC50: 2.2 µM
PC14; [2]
  IC50: 1.9 µM
CCD-18Co; [3]
  IC50: 2.8 µM
HFL1; [4]
  IC50: 2.4 µM
A549; [5]
  IC50: 2.1 µM

## COc1cc(OCCCN(C)C)c(-c2cn3ccc(N4CCN(S(=O)(=O)C(C)C)CC4)cc3n2)cc1Cl [Example 197, 3-(4-Chloro-2-(7-(4-(isopropylsulfonyl)piperazin-1-yl)imidazo[1,2-a]pyridin-2-yl)-5-methoxyphenoxy)-N,N-dimethylpropan-1-amine]
SUV39H2
  IC50: 0.0144 µM
HCT-116; [1]
  IC50: 3.8 µM
PC14; [2]
  IC50: 2.3 µM
CCD-18Co; [3]
  IC50: 2.9 µM
HFL1; [4]
  IC50: 2.9 µM
A549; [5]
  IC50: 3.4 µM

## COc1cc(OC)c(-c2cn3ccc(N4CCC(NP(=O)(OC)OC)CC4)cc3n2)cc1Cl [Example 198, Dimethyl (1-(2-(5-chloro-2,4-dimethoxyphenyl)imidazo[1,2-a]pyridin-7-yl)piperidin-4-yl)phosphoramidate]
SUV39H2
  IC50: 0.00435 µM
HCT-116; [1]
  IC50: 5.7 µM
PC14; [2]
  IC50: 3.7 µM
CCD-18Co; [3]
  IC50: 3.5 µM
HFL1; [4]
  IC50: 1.6 µM
A549; [5]
  IC50: 3.2 µM
